Assays:
Assay type in all cases: functional
[1] = tested on: SK-OV-3; experiment: Growth inhibition of human SKOV3 cells assessed as cell growth at 10^-4 M by sulforhodamine B assay; settings: read-out: Activity
[2] = tested on: OVCAR-3; experiment: Growth inhibition of human OVCAR3 cells assessed as cell growth at 10^-4 M by sulforhodamine B assay; settings: read-out: Activity
[3] = tested on: TK-10; experiment: Growth inhibition of human TK10 cells assessed as cell growth at 10^-6 M by sulforhodamine B assay; settings: read-out: Activity
[4] = tested on: HCT-116; experiment: Growth inhibition of human HCT116 cells assessed as cell growth at 10^-7 M by sulforhodamine B assay; settings: read-out: Activity
[5] = tested on: NCI-H460; experiment: Growth inhibition of human NCI-H460 cells by sulforhodamine B assay
[6] = tested on: M14; experiment: Growth inhibition of human M14 cells assessed as cell growth at 10^-4 M by sulforhodamine B assay; settings: read-out: Activity
[7] = tested on: NCI-H522; experiment: Growth inhibition of human NCI-H522 cells by sulforhodamine B assay
[8] = tested on: OVCAR-8; experiment: Growth inhibition of human OVCAR8 cells assessed as cell growth at 10^-8 M by sulforhodamine B assay; settings: read-out: Activity
[9] = tested on: T47D; experiment: Growth inhibition of human T47D cells assessed as cell growth at 10^-4 M by sulforhodamine B assay; settings: read-out: Activity
[10] = tested on: IGROV-1; experiment: Growth inhibition of human IGROV1 cells by sulforhodamine B assay
[11] = tested on: HL-60(TB); experiment: Growth inhibition of human HL-60(TB) cells assessed as cell growth at 10^-6 M by sulforhodamine B assay; settings: read-out: Activity
[12] = tested on: OVCAR-8; experiment: Growth inhibition of human OVCAR8 cells assessed as cell growth at 10^-7 M by sulforhodamine B assay; settings: read-out: Activity
[13] = tested on: HT-29; experiment: Growth inhibition of human HT-29 cells assessed as cell growth at 10^-7 M by sulforhodamine B assay; settings: read-out: Activity
[14] = tested on: ACHN; experiment: Growth inhibition of human ACHN cells assessed as cell growth at 10^-6 M by sulforhodamine B assay; settings: read-out: Activity
[15] = tested on: NCI-H522; experiment: Growth inhibition of human NCI-H522 cells assessed as cell growth at 10^-4 M by sulforhodamine B assay; settings: read-out: Activity
[16] = tested on: SNB-75; experiment: Growth inhibition of human SNB75 cells assessed as cell growth at 10^-8 M by sulforhodamine B assay; settings: read-out: Activity
[17] = tested on: SR; experiment: Growth inhibition of human SR cells assessed as cell growth at 10^-7 M by sulforhodamine B assay; settings: read-out: Activity
[18] = tested on: MCF7; experiment: Growth inhibition of human MCF7 cells assessed as cell growth at 10^-6 M by sulforhodamine B assay; settings: read-out: Activity
[19] = tested on: KM12; experiment: Growth inhibition of human KM12 cells assessed as cell growth at 10^-8 M by sulforhodamine B assay; settings: read-out: Activity
[20] = tested on: NCI-H226; experiment: Growth inhibition of human NCI-H226 cells assessed as cell growth at 10^-6 M by sulforhodamine B assay; settings: read-out: Activity
[21] = tested on: SN12C; experiment: Growth inhibition of human SN12C cells assessed as cell growth at 10^-7 M by sulforhodamine B assay; settings: read-out: Activity
[22] = tested on: Malme-3M; experiment: Growth inhibition of human MALME-3M cells assessed as cell growth at 10^-7 M by sulforhodamine B assay; settings: read-out: Activity
[23] = tested on: OVCAR-5; experiment: Growth inhibition of human OVCAR5 cells assessed as cell growth at 10^-4 M by sulforhodamine B assay; settings: read-out: Activity
[24] = tested on: SNB-19; experiment: Growth inhibition of human SNB19 cells by sulforhodamine B assay
[25] = tested on: CAKI-1; experiment: Growth inhibition of human CAKI-1 cells assessed as cell growth at 10^-7 M by sulforhodamine B assay; settings: read-out: Activity
[26] = tested on: HCT-116; experiment: Growth inhibition of human HCT116 cells assessed as cell growth at 10^-8 M by sulforhodamine B assay; settings: read-out: Activity
[27] = tested on: RXF 393; experiment: Growth inhibition of human RXF393 cells assessed as cell growth at 10^-4 M by sulforhodamine B assay; settings: read-out: Activity
[28] = Growth inhibition of human Hs 578T cells assessed as cell growth at 10^-4 M by sulforhodamine B assay; settings: read-out: Activity
[29] = tested on: UO-31; experiment: Growth inhibition of human UO31 cells assessed as cell growth at 10^-4 M by sulforhodamine B assay; settings: read-out: Activity
[30] = tested on: SK-OV-3; experiment: Growth inhibition of human SKOV3 cells assessed as cell growth at 10^-6 M by sulforhodamine B assay; settings: read-out: Activity
[31] = tested on: SK-MEL-2; experiment: Growth inhibition of human SK-MEL-2 cells assessed as cell growth at 10^-7 M by sulforhodamine B assay; settings: read-out: Activity
[32] = tested on: UACC-62; experiment: Growth inhibition of human UACC62 cells by sulforhodamine B assay
[33] = tested on: SNB-75; experiment: Growth inhibition of human SNB75 cells assessed as cell growth at 10^-7 M by sulforhodamine B assay; settings: read-out: Activity
[34] = tested on: OVCAR-8; experiment: Growth inhibition of human OVCAR8 cells assessed as cell growth at 10^-4 M by sulforhodamine B assay; settings: read-out: Activity
[35] = tested on: LOX IMVI; experiment: Growth inhibition of human LOXIMVI cells assessed as cell growth at 10^-6 M by sulforhodamine B assay; settings: read-out: Activity
[36] = tested on: HCT-116; experiment: Growth inhibition of human HCT116 cells assessed as cell growth at 10^-4 M by sulforhodamine B assay; settings: read-out: Activity
[37] = tested on: K562; experiment: Growth inhibition of human K562 cells assessed as cell growth at 10^-4 M by sulforhodamine B assay; settings: read-out: Activity
[38] = tested on: OVCAR-8; experiment: Growth inhibition of human OVCAR8 cells by sulforhodamine B assay
[39] = tested on: HOP-62; experiment: Growth inhibition of human HOP62 cells assessed as cell growth at 10^-4 M by sulforhodamine B assay; settings: read-out: Activity
[40] = tested on: LOX IMVI; experiment: Growth inhibition of human LOXIMVI cells assessed as cell growth at 10^-8 M by sulforhodamine B assay; settings: read-out: Activity
[41] = tested on: MCF7; experiment: Growth inhibition of human MCF7 cells assessed as cell growth at 10^-4 M by sulforhodamine B assay; settings: read-out: Activity
[42] = tested on: CCRF-CEM; experiment: Growth inhibition of human CCRF-CEM cells assessed as cell growth at 10^-7 M by sulforhodamine B assay; settings: read-out: Activity
[43] = tested on: MDA-MB-435; experiment: Growth inhibition of human MDA-MB-435 cells assessed as cell growth at 10^-6 M by sulforhodamine B assay; settings: read-out: Activity
[44] = read-out: LC50 (the source's name)
[45] = read-out: pLC50 (the source's name) (converted)

C/C=C(/C)C(=O)O[C@@H]1CC(C)(C)C[C@H]2C3=CC[C@@H]4[C@@]5(C)CCC(=O)C(C)(C)[C@@H]5CC[C@@]4(C)[C@]3(C)CC[C@@]12C(=O)O [LANTADENE A]
growth at 100 µM [1]: 32% | growth at 100 µM [2]: 23% | growth at 1 µM [3]: 101% | growth at 0.1 µM [4]: 90% | GI50 ([5]; read-out: GI50): 3.59 µM | LC50 ([5]; read-out: LC50): > 100 µM | TGI ([5]; read-out: TGI): > 100 µM | GI50 ([5]; read-out: pGI50 (converted)): 3.63 µM | LC50 ([5]; read-out: pLC50 (converted)): > 100 µM | TGI ([5]; read-out: pTGI (converted)): > 100 µM | growth at 100 µM [6]: 23% | GI50 ([7]; read-out: GI50): 3.25 µM | CC50 [7, 44]: > 100 µM | TGI ([7]; read-out: TGI): 44.1 µM | GI50 ([7]; read-out: pGI50 (converted)): 3.24 µM | CC50 [7, 45]: > 100 µM | TGI ([7]; read-out: pTGI (converted)): 43.7 µM | growth at 0.01 µM [8]: 97% | growth at 100 µM [9]: 23% | GI50 ([10]; read-out: GI50): 6.75 µM | CC50 [10, 44]: > 100 µM | TGI ([10]; read-out: TGI): > 100 µM | GI50 ([10]; read-out: pGI50 (converted)): 6.76 µM | CC50 [10, 45]: > 100 µM | TGI ([10]; read-out: pTGI (converted)): > 100 µM | growth at 1 µM [11]: 80% | growth at 0.1 µM [12]: 98% | growth at 0.1 µM [13]: 101% | growth at 1 µM [14]: 92% | growth at 100 µM [15]: -4% | growth at 0.01 µM [16]: 86% | growth at 0.1 µM [17]: 79% | growth at 1 µM [18]: 87% | growth at 0.01 µM [19]: 103% | growth at 1 µM [20]: 87% | growth at 0.1 µM [21]: 95% | growth at 0.1 µM [22]: 96% | growth at 100 µM [23]: 42% | GI50 ([24]; read-out: GI50): 4.67 µM | CC50 [24, 44]: > 100 µM | TGI ([24]; read-out: TGI): > 100 µM | GI50 ([24]; read-out: pGI50 (converted)): 4.68 µM | CC50 [24, 45]: > 100 µM | TGI ([24]; read-out: pTGI (converted)): > 100 µM | growth at 0.1 µM [25]: 94% | growth at 0.01 µM [26]: 94% | growth at 100 µM [27]: -15% | growth at 100 µM [28]: 21% | growth at 100 µM [29]: 6% | growth at 1 µM [30]: 103% | growth at 0.1 µM [31]: 115% | GI50 ([32]; read-out: GI50): 1.73 µM | CC50 [32, 44]: 43 µM | TGI ([32]; read-out: TGI): 6.56 µM | GI50 ([32]; read-out: pGI50 (converted)): 1.74 µM | CC50 [32, 45]: 42.7 µM | TGI ([32]; read-out: pTGI (converted)): 6.61 µM | growth at 0.1 µM [33]: 89% | growth at 100 µM [34]: 24% | growth at 1 µM [35]: 92% | growth at 100 µM [36]: 11% | growth at 100 µM [37]: 28% | GI50 ([38]; read-out: GI50): 4.97 µM | CC50 [38, 44]: > 100 µM | TGI ([38]; read-out: TGI): > 100 µM | GI50 ([38]; read-out: pGI50 (converted)): 5.01 µM | CC50 [38, 45]: > 100 µM | TGI ([38]; read-out: pTGI (converted)): > 100 µM | growth at 100 µM [39]: 26% | growth at 0.01 µM [40]: 96% | growth at 100 µM [41]: 15% | growth at 0.1 µM [42]: 97% | growth at 1 µM [43]: 90%
